Measurements: US20090202540A1, “SUBSTITUTED OXAZAPHOSPHORINES” (Auspex Pharmaceuticals, Inc., priority 2008, published 2009)
Like-named read-outs stand apart in the source and are kept apart here.

Details: 1 mg per mL liver microsome protein, 1 μM compound, 37° C., compared to the non-isotopically enriched drug
Description: Liver microsomal stability assays were conducted at 1 mg per mL liver microsome protein with an NADPH-generating system in 2% NaHCO3 (2.2 mM NADPH, 25.6 mM glucose 6-phosphate, 6 units per mL glucose 6-phosphate dehydrogenase and 3.3 mM MgCl2). Test compounds were prepared as solutions in 20% acetonitrile-water and added to the assay mixture (final assay concentration 1 μM) and incubated at 37° C. Final concentration of acetonitrile in the assay should be <1%. Aliquots (50 μL) were taken out at times 0, 15, 30, 45, and 60 min, and diluted with ice cold acetonitrile (200 μL) to stop the reactions. Samples were centrifuged at 12,000 RPM for 10 min to precipitate proteins. Supernatants were transferred to micro centrifuge tubes and stored for LC/MS/MS analysis of the degradation half-life of the test compounds.

Structure (SMILES) | % increase of HLM degradation half-life (50%-150%) | further results
[2H]C([2H])(Cl)C([2H])([2H])N(C([2H])([2H])C([2H])([2H])Cl)P1(=O)NCCCO1 (stereo not shown) [Example 1, d8-Bis-(2-chloro-ethyl)-(2-oxo-2λ^5-[1,3,2]oxazaphosphinan-2yl)-amine] |  | % increase of HLM degradation half-life (column −25%-0%): + (−25%-0%)
[2H]C1([2H])CCNP(=O)(N(CCCl)CCCl)O1 (stereo not shown) [Example 2, Bis-(2-chloro-ethyl)-(d2-2-oxo-2λ^5-[1,3,2]oxazaphosphinan-2yl)-amine] | + (50%-150%) | 
[2H]C1([2H])CCNP(=O)(N(C([2H])([2H])C([2H])([2H])Cl)C([2H])([2H])C([2H])([2H])Cl)O1 (stereo not shown) [Example 3, d8-Bis-(2-chloro-ethyl)-(d2-2-oxo-2λ^5-[1,3,2]oxazaphosphinan-2yl)amine] | + (50%-150%) | 
[2H]C1([2H])CCOP(=O)(N(C([2H])([2H])C([2H])([2H])Cl)C([2H])([2H])C([2H])([2H])Cl)N1 (stereo not shown) [Example 5, d8-Bis-(2-chloro-ethyl)-(2-oxo-2λ^5-[1,3,2]oxazaphosphinan-2yl)-d2-amine] |  | % increase of HLM degradation half-life (0%-50%): + (0%-50%)
